Measured values: US20220168427A1 (Ranok Therapeutics (Hangzhou) Co. Ltd., priority 2019, published 2022)

Key:
BRD4 (BD1+BD2) = molecular target: T1, BRD4 (BD1+BD2) (Homo sapiens, UniProt O60885); conditions: read-out: BRD4 Binding Potency
T1 construct: 1.8 μg/ml recombinant BRD4 (BD1+BD2 domains) protein

BRD4 = molecular target: T2, BRD4 (Homo sapiens, UniProt O60885); experiment: BRD4 Western Blotting in MV4-11 cells; assay type: cell-based
T2 construct: endogenous in cells; host or cells: MV4-11
Experimental: Cells were then collected by centrifugation, washed one time with cold PBS, supernatants aspirated and cell pellets lysed with 4° C. RIPA lysis buffer containing a protease/phosphatase inhibitor cocktail. The total protein concentrations of cell lysates were determined by BCA Protein Assay kit. Samples were normalized for equivalent protein concentrations, 5× loading buffer added and heated to 100° C. for 10 min and cooled to room temperature. 20 μl of each sample/well was loaded on a SDS-PAGE gel and electrophoresed for 20 min at 80 V, then 120 V for 1.5 hr. Gels were then electroblotted to nitrocellulose membranes using a wet-transfer method at 250 mA for 2.5 hr. Membranes were incubated with blocking buffer for 1 hr and washed 3 times with TBST for 5 min. Then membranes were incubated with anti-BRD4 (Cell Signaling Technology, #13440) and anti-beta-Actin (Cell Signaling Technology, #3700) antibodies diluted in blocking buffer per the manufacturer's recommendation at 4° C. overnight. After washing 3 times, blots were incubated with the appropriate labeled secondary antibody for 1 hr at room temperature and washed again. Images were read on a LI-COR and the optical density values of bands determined by ImageJ software. Data was analyzed using GraphPad Prism 7.0.

SU-DHL-4 xenograft = experiment: SU-DHL-4 DLBCL tumor xenograft study in mice
Experimental: Tumor Xenograft Studies in Mice
5×10^6 MV-4-11 or 1×10^7 SU-DHL-4 cells were collected and re-suspended in 0.1 mL of serum-free media with Matrigel (1:1 v/v) per mouse for subcutaneous inoculation in isoflurane anesthetized male BALB/c nude or C.B-17 scid mice, respectively (treated in accordance with AAALAC animal welfare guidelines). When the average tumor volumes reached 100-200 mm^3, tumor volume outliers were removed and the remaining animals randomly divided into groups of 6-8 with similar average tumor volumes in each group. […] Animals were intravenously dosed at 25 mg/kg, 50 mg/kg or 100 mg/kg 1×/week for 3 or 4 weeks. The appearance and behavior of each mouse was observed and recorded daily. Body weights and tumor volumes were measured and recorded every 2-4 days and the results were expressed as group means±SEM. Pairwise statistical comparisons between groups were performed by one-way ANOVA, and p<0.05 was considered statistically significant.

[1] = Pharmacokinetics and Tissue Distribution in the MV4-11 xenograft model; assay type: in vivo, mice; conditions: female, CB-17 SCID, mouse, 5 mg/kg single intravenous dose
Experimental: Pharmacokinetics and Tissue Distribution
15 female CB-17 SCID mice (treated in accordance with AAALAC animal welfare guidelines) were weighed and administered 5 mg/kg of compound 074 by a single intravenous injection. 0.10 mL of blood was collected from each mouse by submandibular vein and sodium heparin was added as an anticoagulant. Samples were collected before compound administration, and at 1 hr, 6 hr 24 hr and 48 hr time points after administration, with 3 mice sampled per time point. After collection, samples were placed on ice and the animals sacrificed to collect tumor and normal tissues. The method development and analysis of all samples were performed by the analytical laboratory at Shanghai Medicilon Inc. Intra-day accuracy evaluation of samples for quality control was carried out during sample analysis and a quality control accuracy of more than 66.7% of samples was required between to be 80-120%. Pharmacokinetic parameters were calculated using Phoenix WinNonlin7.0 software.

[2] = 100 mg/kg intravenously 1×/week, after 4 weeks of dosing

Cc1sc2c(c1C)C(c1ccc(Cl)cc1)=N[C@@H](CC(=O)N1CCC(CN3CCN(Cc4ccc(-n5c(O)nnc5-c5cc(C(C)C)c(O)cc5O)cc4)CC3)CC1)c1nnc(C)n1-2.Cl [Compound 74, (S)-2-(4-(4-chlorophenyl)-2,3,9-trimethyl-6H-thieno[3,2-f][1,2,4]triazolo[4,3-a][1,4]diazepin-6-yl)-1-(4-((4-(4-(3-(2,4-dihydroxy-5-isopropylphenyl)-5-hydroxy-4H-1,2,4-triazol-4-yl)benzyl)piperazin-1-yl)methyl)piperidin-1-yl)ethan-1-one hydrochloride]
IC50 (BRD4 (BD1+BD2)): 100 to 1000 nM | BRD4 degradation by western blotting with proteasome inhibitor bortezomib (BRD4; MV4-11 cells treated with both compound 074 and bortezomib): BRD4 degradation was blocked | BRD4 degradation by western blotting (BRD4; MV4-11 cells, 24 hr, 100 and 300 nM): BRD4 degradation was observed | DC50 (BRD4; MV4-11 cells, read-out: IC50 value for BRD4 degradation determined by western blotting): 59 nM | tumor growth inhibition (SU-DHL-4 xenograft; [2]): significant tumor growth inhibition | tumor vs control (T/C) value (SU-DHL-4 xenograft; [2]): 41% | animal deaths and body weights (SU-DHL-4 xenograft; any dose level): No animal deaths or significant effects on body weights were observed | Cmax ([1]; heart): 1640 ng/g | Tmax ([1]; heart): 1 h | half-life ([1]; heart): 3.7 h | Cmax ([1]; liver): 5040 ng/g | Tmax ([1]; liver): 1 h | half-life ([1]; liver): 3.37 h | Cmax ([1]; lung): 2030 ng/g | Tmax ([1]; lung): 1 h | half-life ([1]; lung): 6.94 h | AUC(0-inf) ([1]; plasma): 3020 ng·h/mL | Cmax ([1]; plasma): 498 ng/mL | Tmax ([1]; plasma): 1 h | half-life ([1]; plasma): 3.92 h | Cmax ([1]; tumor): 462 ng/g | Tmax ([1]; tumor): 1 h | half-life ([1]; tumor): 32.1 h
